Assays:
[1] = transplant recipients; cited from earlier work
[2] = Tacrolimus blood trough level in the rhesus recipient; assay type: in vivo, rhesus macaque (Macaca mulatta); conditions: subcutaneously twice per day
Description: Beginning five days prior to delivery of the cell therapy composition and continuing for 16 weeks after delivery, the rhesus recipient was treated daily with tacrolimus and MMF. Tacrolimus was provided subcutaneously twice per day at a dose yielding a blood trough level of approximately 5-10 ng/mL. MMF was provided orally twice per day, for a total dose of 250 mg MMF per day. If a subject cannot tolerate oral dosing of MMF, MMF can be alternatively provided by intravenous administration. In some cases, if a subject cannot tolerate oral MMF, the subject is administered intravenous MMF until the subject can tolerate oral MMF, at which point the subject is switched from intravenous to oral MMF Immune rejection of the riPSC-CMs 16 weeks after delivery was determined by histopathological analysis.

T cells = conditions: relative to CsA; cited from earlier work

Blood trough level [2]	SMILES	Safety profile relative to MMF [1]	Therapeutic equivalence to MMF [1]	Concentrations giving similar effects to CsA, times lower (T cells)
–	COc1c(C)c2c(c(O)c1C/C=C(\C)CCC(=O)[O-])C(=O)OC2.[Na+] [MS, mycophenolate sodium]	comparable safety profile	therapeutically equivalent to MMF	–
5 to 10 ng/mL	C=CC[C@@H]1/C=C(\C)C[C@H](C)C[C@H](OC)[C@H]2O[C@@](O)(C(=O)C(=O)N3CCCC[C@H]3C(=O)O[C@H](/C(C)=C/[C@@H]3CC[C@@H](O)[C@H](OC)C3)[C@H](C)[C@@H](O)CC1=O)[C@H](C)C[C@@H]2OC [Tacrolimus, tacrolimus]	–	–	100 times

— US20220296572A1, “IMMUNOSUPPRESSIVE THERAPIES FOR USE WITH CARDIOMYOCYTE CELL THERAPIES, AND ASSOCIATED METHODS AND COMPOSITIONS” (Sana Biotechnology, Inc., priority 2021, published 2022)
